Source: patent US5254731A, “Substituted 3,4-dihydronaphthalenes, pharmaceutical compositions containing them, and preparation processes” (Gruenenthal GmbH, priority 1991, dated 1993)

Columns and labels:
[1] = system: endotoxin/galactosamine-induced hepatitis; experiment: endotoxin/galactosamine-induced hepatitis in mice (septic shock model); format: in vivo, mouse; conditions: for Inhibition of increase of the enzymatic activity of GPT / Inhibition of increase of the enzymatic activity of SDH: i.p., 10 mg/kg for each of five administrations, serum, 8 hours after endotoxin; for shock mortality: endotoxin/galactosamine-induced hepatitis model
Protocol: To evaluate the effects of compounds according to the invention on septic shock, endotoxin/galactosamine-induced hepatitis in mice was used as test model. […] Intraperitoneal administration of compounds of formula I 30 minutes before, simultaneously with, and 2, 4 and 6 hours after administration of the endotoxin inhibits the hepatitis-induced increase of the activities of these enzymes in the serum. On administration of compounds of formula I in doses of 10 mg/kg for each of the five administrations, the following percentage inhibitions of the increase of the enzymatic activities of GPT and SDH were achieved (the increase of enzymatic activities in control animals who had been treated five times with a solution containing 1% by weight of sodium carboxymethylcellulose was set at 100%): […]

[2] = system: bronchoconstriction elicited by ovalbumin; experiment: anti-asthmatic effect: ovalbumin-elicited bronchoconstriction in anesthetized, passively sensitized guinea pigs; format: in vivo, guinea pig; conditions: Cavia porcellus, 1 h; oral, 60 minutes before ovalbumin 0.2 mg/kg i.v.; read-out: ED40 (40% average inhibition of the bronchoconstriction elicited by ovalbumin)
Protocol: The anti-asthmatic effect of compounds according to the invention was tested in anesthetized and ventilated guinea pigs. To induce an asthmatic reaction, the animals were passively sensitized by a single intraperitoneal injection of anti-ovalbumin serum. After 48 hours the asthmatic reaction was elicited by intravenous challenge with 0.2 mg/kg of ovalbumin. The immediately resulting bronchoconstriction was measured as an increase in intratracheal pressure. Effects caused by histamine, serotonin and sympathic counterreaction were eliminated by intravenous pretreatment with 2.15 mg/kg of mepyramine, 46.4 mg/kg of propranolol, 4.64 mg/kg of atropine and 1 mg/kg of methysergide, all administered 5 minutes before challenge. Substituted 3,4-dihydronaphthalenes were orally administered 60 minutes before the administration of ovalbumin.

[3] = comparative compound, aforementioned test model
[4] = comparative compounds of formula A, aforementioned test model

Row | SMILES | Inhibition of increase of the enzymatic activity of GPT [1] | Inhibition of increase of the enzymatic activity of SDH [1] | ED40 [2] | also measured
1 | COc1ccc2c(c1)CCC(CN(O)C(C)=O)=C2 [Example 1, N-[(6-methoxy-3,4-dihydronaphth-2-yl)methyl]acetohydroxamic acid] | 54% | 41% | – | –
2 | COc1ccc2c(c1)CCC(C(C)N(O)C(C)=O)=C2 (stereo not drawn) [Example 2, N-[1-(6-methoxy-3,4-dihydronaphth-2-yl)ethyl]acetohydroxamic acid] | 56% | 69% | – | –
3 | COc1ccc2c(c1)CCC(CN(O)C(N)=O)=C2 [Example 3, N-hydroxy-N-[(6-methoxy-3,4-dihydronaphth-2-yl)methyl]urea] | 78% | 57% | 33.5 mg/kg | –
4 | CC(=O)N(O)CC1=Cc2ccc(OC3CCCC3)cc2CC1 [Example 6a, N-[(6-cyclopentyloxy 3,4-dihydronaphth 2 yl)methyl]acetohydroxamic acid] | – | – | 275 mg/kg | –
5 | CC(C)Oc1ccc2c(c1)CCC(CN(O)C(N)=O)=C2 [Example 6e, N-hydroxy-N-[(6-isopropoxy-3,4-dihydronaphth-2-yl)methyl]urea] | – | – | 368 mg/kg | –
6 | NC(=O)N(O)CC1=Cc2ccc(OCc3ccccc3)cc2CC1 [Example A1, reference compound] | – | – | – | inhibition of GPT (in words) [1, 3]: did not cause either an inhibition of GPT; inhibition of SDH (in words) [1, 3]: did not cause either an inhibition of GPT and SDH; shock mortality [1]: did not cause either an inhibition of GPT and SDH or a decrease in the shock mortality
7 | CC(=O)N(O)CC1=Cc2ccc(OCc3ccccc3)cc2CC1 [Example A2, reference compound] | – | – | – | inhibition of GPT [1, 4]: 16%; inhibition of SDH [1, 4]: 32%; shock mortality [1]: no detectable influence on shock mortality
